In patent publication US6387388B1, “Pesticidal formulation” (Merck & Co., Inc., priority 1995, dated 2002):
Entries after “also recorded” stand apart in the source; their conditions may differ.

Columns and labels:
[1] = tested on: eye of a rabbit; assay: Neat emamectin benzoate, acute ocular irritation study in rabbits; type: in vivo, albino rabbits (New Zealand white)
Procedure: Three male and three female albino rabbits (New Zealand white) 25 to 26 weeks of age and weighing 3.23 to 3.66 kg was used in this study. The test compound was ground into a fine powder and a volume of 0.1 cc (approximately 28 mg) was placed in the conjunctival sac of the left eye of each rabbit. Immediately after administration, the eyelids of the treated eye were held together for one second to prevent loss of material and released. The right eye was used as an untreated control.
Ocular examinations were made recorded at 1, 24, 48 and 72 hours post-instillation in all rabbits and were scored by the Draize Method (J. Pharmacol. Exp. Therap. 82:377-390 (1944)). Because of severe ocular reactions, three rabbits were euthanized following the 72-hour reading. Scores were recorded for the three remaining rabbits once daily through 14 days post-instillation except on weekends.

[2] = tested on: tomato fruitworm (Helicoverpa zea); assay: Field efficacy study, weekly foliar sprays on tomato; type: in vivo
Text: ‘Roma’ tomato transplants were planted in the field on June 10. Each plot was one row (5 ft centers) by 20 feet (=0.0022957 acre). Plots were separated within rows by at least 6 feet of unplanted ground and across rows by 24 feet. A single row of sweet corn (‘Silver Queen’) was planted mid-way between rows. Weeds are allowed to grow in the ground between the tomato and sweet corn rows, but were kept mowed. Weeds were controlled within tomato rows by a single application of Sencor 75 DF applied as a directed spray at the rate of 0.5 lb a.i./acre on June 20. Foliar applications of Dithane M45 at 1.5 lb a.i./acre were made every 5 days beginning July 1 and continuing through harvest for control of foliar diseases. In addition, calcium nitrate at 4 lb/acre was applied on July 10, 17, 24 and 31 for control of blossom-end rot. All insecticide treatments were applied as foliar sprays on July 23, 30, August 6, and 13. Applications were made using a CO2-powered, backpack sprayer calibrated to deliver 55 gallons of spray per acre at 42 psi. […]
The experimental treatments were replicated 4 times in a randomized complete block experimental design. The incidence of fruitworm damage to the fruit was determined in each plot on August 11, when the first fruit reached market maturity, and again on August 16. […]

[3] = soluble in 1 liter of water; cited from earlier work

Compound: benzoate salt of 4″-deoxy-4″-epi-methylamino avermectin B1a/B1b [emamectin benzoate]
- ocular irritation rating ([1]; 0.1 cc (approximately 28 mg) fine powder in conjunctival sac, six rabbits, listed as neat emamectin benzoate): severely irritating; also recorded: severe, irreversible eye irritant
- ocular reactions in the three rabbits euthanized early, through 72 hours ([1]; approximately 28 mg in conjunctival sac): chemosis became severe
- ocular reactions at one hour ([1]; approximately 28 mg in conjunctival sac, six rabbits, listed as neat emamectin benzoate): the eyes of four rabbits had congestion of the iris; also recorded: corneal anesthesia and conjunctival irritation; also recorded: moderate redness, slight or moderate chemosis and severe colorless discharge
- ocular reactions at 24 hours ([1]; approximately 28 mg in conjunctival sac, listed as neat emamectin benzoate): an additional rabbit had congestion of the iris; also recorded: very slight corneal opacity covering less than ¼ of the corneal surface; also recorded: corneal anesthesia was still present, redness was severe, chemosis was never more than moderate
- body weight loss ([1]; rabbits euthanized early): less than 7%
- corneal anesthesia lasted through ([1]; two of the three remaining rabbits): 72 h

Compound: CC1(C)[C@H](C(=O)O[C@H](C#N)c2cccc(Oc3ccccc3)c2)[C@@H]1/C=C(\Cl)C(F)(F)F (racemic) [lambda-cyhalothrin]
- overall mean percentage of damaged fruit ([2]; foliar): 1.0%

Compound: CC(C)[C@H](C(=O)O[C@H](C#N)c1cccc(Oc2ccccc2)c1)c1ccc(Cl)cc1 [esfenvalerate]
- overall mean percentage of damaged fruit ([2]; tomato, Asana XL 0.66 EC at 0.036 lb active ingredient per acre, applied weekly, untreated control 18.5%): 0.0%

Compound: COP(=O)(NC(C)=O)SC (stereo not drawn) [acephate]
- amount soluble in water [3]: 650 g
